Consider 2 compounds from US7947666B2, “2-methylene-(20S,25S)-19,26-dinor-vitamin D analogs” (Wisconsin Alumni Research Foundation, priority 2007, dated 2011).

A word on the EC50: it is the midpoint of the concentration-response curve.

For one test, the system named is HL-60 cells. Nature of the test: HL-60 differentiation (nitro blue tetrazolium reduction). The format is cell-based, human. As to conditions: 4 days, NBT reduction, FIG. 2, read-out: EC50, HL-60 cell differentiation. The method, then: The study drugs were dissolved in ethanol and the concentrations determined using UV spectrophotometry. Serial dilutions were prepared so that a range of drug concentrations could be tested without changing the final concentration of ethanol (≦0.2%) present in the cell cultures.
Human promyelocytic leukemia (HL60) cells were grown in RPMI-1640 medium containing 10% fetal bovine serum. The cells were incubated at 37° C. in the presence of 5% CO2.
HL60 cells were plated at 1.2×10^5 cells/ml. Eighteen hours after plating, cells in duplicate were treated with drug. Four days later, the cells were harvested and a nitro blue tetrazolium reduction assay was performed (Collins et al., 1979; J. Exp. Med. 149:969-974). The percentage of differentiated cells was determined by counting a total of 200 cells and recording the number that contained intracellular black-blue formazan deposits. Verification of differentiation to monocytic cells was determined by measuring phagocytic activity (data not shown).

In test [1] the test system is 24-hydroxylase (24Ohase) gene promoter. The experiment in a line: In vitro transcription assay, luciferase reporter in ROS 17/2.8 (bone) cells. The format is cell-based. Particulars: ROS 17/2.8 cells, 24-hydroxylase promoter luciferase, 16 h; FIG. 3; read-out: EC50, transcriptional activity in bone cells. The method, then: Transcription activity was measured in ROS 17/2.8 (bone) cells that were stably transfected with a 24-hydroxylase (24Ohase) gene promoter upstream of a luciferase reporter gene (Arbour et al., 1998). Cells were given a range of doses. Sixteen hours after dosing the cells were harvested and luciferase activities were measured using a luminometer.
RLU=relative luciferase units.

In test [2] the test system is vitamin D-deficient rats. The experiment in a line: Bone calcium mobilization (serum calcium). The format is in vivo, rat. As to conditions: for bone calcium mobilization (serum calcium): rats on low calcium diet (0.02%); for bone calcium mobilization (serum calcium levels): all dosages / overall, FIGS. 4A and 4B. The method, then: (§1) Male, weanling Sprague-Dawley rats were placed on Diet 11 (0.47% Ca) diet +AEK oil for one week followed by Diet 11 (0.02% Ca) +AEK oil for 3 weeks. The rats were then switched to a diet containing 0.47% Ca for one week followed by two weeks on a diet containing 0.02% Ca. Dose administration began during the last week on 0.02% calcium diet. Four consecutive ip doses were given approximately 24 hours apart. Twenty-four hours after the last dose, blood was collected from the severed neck and the concentration of serum calcium determined as a measure of bone calcium mobilization. The first 10 cm of the intestine was also collected for intestinal calcium transport analysis using the everted gut sac method.
Calcium mobilization from bone and intestinal calcium absorption in vitamin D-deficient animals.

Test [3] concerns vitamin D-deficient rats. Nature of the test: Intestinal calcium transport, everted gut sac method. The class given is in vivo, rat. As to conditions: for intestinal calcium transport: everted gut sac. The procedure: as §1
Intestinal calcium transport was evaluated in the same groups of animals using the everted gut sac method (FIGS. 5A and 5B).

The mark [4] stands for this setting: 260 pmol/day ip for 4 consecutive days.
The mark [5] stands for this setting: 7020 pmol/day ip for 4 consecutive days.

Read-outs that look alike come from different tables or passages of the source.

For the compound `C=C1[C@H](O)CC(=C/C=C2\CCC[C@@]3(C)C2CC[C@@H]3[C@@H](C)CCC[C@H](C)O)C[C@H]1O` (stereo partly drawn) [A4, 2-methylene-(20S,25S)-19,26-dinor-1α,25-dihydroxyvitamin D3], the EC50 with HL-60 cells (Homo sapiens, 96 h) was found to be 0.5 nM; in test [1], 0.03 nM. The “bone calcium mobilization (serum calcium)” value is “did not result in mobilization of bone calcium” in the test on vitamin D-deficient rats [2] (setting [4]) and “without any substantial effect” with vitamin D-deficient rats [2] (setting [5]). In the test on vitamin D-deficient rats [2], the “bone calcium mobilization (serum calcium levels)” value is “very little bone calcium mobilization activity”. Also, in the test with vitamin D-deficient rats [2] (rats, compared to 1,25(OH)2D3, same increase in serum calcium), the “times less potent than the native hormone in mobilizing bone calcium store” value was “approximately 100 times”. The intestinal calcium transport entry is reported as “promotes intestinal calcium transport only slightly” with vitamin D-deficient rats [3] (setting [4]) and “significant intestinal calcium transport activity” in the test with vitamin D-deficient rats [3] (setting [5]). Also, in the test with vitamin D-deficient rats [3] (overall, FIGS. 5A and 5B, two batches of rats), the “intestinal calcium transport activity compared to 1,25(OH)2D3” value is recorded as “very little activity”.

Take `C=C1/C(=C\C=C2/CCC[C@]3(C)[C@@H]([C@H](C)CCCC(C)(C)O)CC[C@@H]23)C[C@@H](O)C[C@@H]1O` [1,25(OH)2D3, 1α,25-dihydroxyvitamin D3, reference compound]: in the test on HL-60 cells, the EC50 worked out at 2 nM. In addition, the “bone calcium mobilization (serum calcium levels)” value with vitamin D-deficient rats [2] was “increased serum calcium levels at all dosages”. For the same compound, the intestinal calcium transport result in the test with vitamin D-deficient rats [3] (setting [4]) is on record as “promotes a significant increase”.
